# Measurements taken from publication PMC12722920, “Pharmacokinetics and pharmacodynamics of cannabigerol (CBG) in the C57BL/6Crl mouse” (Frontiers in Pharmacology, 2025).
# Columns and labels:
# C57BL/6Crl mice [1] = assay: Cannabinoid tetrad: catalepsy in the ring holding assay; format: in vivo; details: for ED50: Mus musculus, iv
# C57BL/6Crl mice [2] = assay: Cannabinoid tetrad: internal body temperature (rectal thermometer); format: in vivo; details: for ED50: Mus musculus, iv
# C57BL/6Crl mice [3] = assay: Cannabinoid tetrad: nociception by tail-flick latency; format: in vivo; details: for ED50: Mus musculus, iv
# C57BL/6Crl mice [4] = assay: Open field test (OFT): locomotion and anxiety-like behaviour; format: in vivo
# Description: Catalepsy was assessed in the ring holding assay; mice were positioned with their forepaws grasping onto a 0.5 cm thick ring clamp elevated 5 cm above the testing surface. The duration of time while the ring was held was recorded in seconds, with each trial terminated if the mouse’s forepaw released from the bar, upon turning of the head or body, or after 60 s of immobility. Catalepsy was evaluated three times consecutively, and the average time spent holding the bar was reported as a percent of the maximum possible effect (% MPE, up to 60 s). Internal body temperature was measured via a rectal thermometer. Nociception was determined by assessing tail-flick latency, where mice were restrained with their tails placed ∼1 cm into 52 °C ± 2 °C water. The time (sec) until the tail was removed was measured, with observations ending at 20 s and represented as a % MPE. Locomotion and anxiety-like behaviour were assessed in the OFT. Mice were placed in an open space (90 cm × 90 cm) and recorded for 5 min. Total distance travelled (cm), velocity (cm/sec), time in the centre quadrant (sec), and central quadrant entries were measured with EthoVision XT (Noldus Information Technology Inc., Leesburg, VA).
# In Phase I (Part B), after determining the timepoint at which blood CBG concentrations were highest for each respective route of administration, the timing for each measure in the tetrad was adjusted. An assessment was conducted in a new cohort consisting of both male and female mice (n = 4 per sex per route) receiving a dose of 10 mg/kg of CBG via i.v., i.p., or p.o. routes. For those administered with i.v. CBG, the timing was: catalepsy at 5 min, body temperature at 15 min, tail-flick latency at 20 min, and OFT at 25 min post-injection. For i.p. CBG, measurements were taken at 20 min for catalepsy, 25 min for body temperature, 30 min for tail-flick latency, and 35 min for OFT post-injection. For p.o. CBG, data collection was scheduled as follows: catalepsy at 170 min, body temperature at 175 min, tail-flick latency at 180 min, and OFT at 185 min post-injection.
# [5] = design: method as in Newmeyer et al., 2016; details: ref Newmeyer et al., 2016, cited from earlier work
# CB1R = test system: CB1R; design: method as in earlier work; details: ref El-Alfy et al., 2010; Navarro et al., 2018; Zagzoog et al., 2020; cited from earlier work
# [6] = 1, 3, 10 or 30 mg/kg i.v., male and female mice
# [7] = accounting for blood concentrations measured at 10 min, i.v.
smiles,measurement,setting,value
"CCCCCc1cc(O)c(C/C=C(\C)CCC=C(C)C)c(O)c1 [CBG, cannabigerol]","catalepsy, mean % MPE","C57BL/6Crl mice [1]; 10 mg/kg i.p., 20 min post-injection, male and female mice, MPE = 60 s",5.4% ± 2.5%
same,cataleptic response,"C57BL/6Crl mice [1]; 10 mg/kg i.v., i.p. and p.o., male mice, 5 min post-injection",did not produce a cataleptic response
same,"catalepsy, dose-response",C57BL/6Crl mice [1]; [6],"produced a modest effect but only at the highest dose tested, 30 mg/kg"
same,ED50,"C57BL/6Crl mice [1]; 5 min, i.v., both sexes, 5 min post-administration, read-out: ED50 catalepsy",> 30 mg/kg
same,ED50,"C57BL/6Crl mice [1]; both sexes, three-parameter nonlinear regression, read-out: ED50 catalepsy, estimate exceeding the dose range (square brackets)",> 30 mg/kg
same,ED50,"C57BL/6Crl mice [1]; males, read-out: ED50 catalepsy",> 30 mg/kg
same,"Intoxication ratio, catalepsy","C57BL/6Crl mice [1]; THC potency/CBG potency corrected for blood concentration at 10 min, both sexes",0.23
same,"intoxication relative to THC, catalepsy",C57BL/6Crl mice [1]; [7],23%
same,"Intoxication ratio, catalepsy",C57BL/6Crl mice [1]; females,0.28
same,ED50 catalepsy,"C57BL/6Crl mice [1]; i.v., females",> 30 mg/kg
same,"Intoxication ratio, catalepsy",C57BL/6Crl mice [1]; males,0.17
same,body temperature vs vehicle,"C57BL/6Crl mice [2]; 10 mg/kg i.p. or p.o., male mice, 15 min post-injection",significant increase in temperature
same,body temperature vs vehicle,"C57BL/6Crl mice [2]; 10 mg/kg, all routes (i.v. 15 min, i.p. 25 min, p.o. 175 min), male and female mice",decreased body temperature compared to vehicle
same,"hypothermia, dose-response",C57BL/6Crl mice [2]; [6],"produced a modest effect but only at the highest dose tested, 30 mg/kg"
same,ED50,"C57BL/6Crl mice [2]; 0.25 h, both sexes, 15 min post-administration",> 30 mg/kg
same,ED50,C57BL/6Crl mice [2]; males,> 30 mg/kg
same,"effect on body temperature, dose-response","C57BL/6Crl mice [2]; i.v., Phase II",did not alter body temperature
same,anti-nociceptive response in tail-flick vs vehicle,"C57BL/6Crl mice [3]; 10 mg/kg i.v., 20 min post-administration, male and female mice",produced an anti-nociceptive response
same,tail-flick latency,"C57BL/6Crl mice [3]; 10 mg/kg i.v., i.p. and p.o., male mice, 20 min post-injection",did not alter tail-flick latency
same,"anti-nociception, dose-response",C57BL/6Crl mice [3]; [6],"produced a modest effect but only at the highest dose tested, 30 mg/kg"
same,anti-nociceptive effect (tail-flick),C57BL/6Crl mice [3]; CBG given i.p.,10% ± 0.83%
same,ED50,"C57BL/6Crl mice [3]; 20 min, i.v., both sexes, 20 min post-administration, read-out: ED50 tail-flick latency",> 30 mg/kg
same,ED50,"C57BL/6Crl mice [3]; both sexes, read-out: ED50 tail-flick latency, estimate exceeding the dose range (square brackets)",> 30 mg/kg
same,ED50,"C57BL/6Crl mice [3]; males, read-out: ED50 tail-flick latency",> 30 mg/kg
same,"intoxication relative to THC, anti-nociception",C57BL/6Crl mice [3]; [7],3.6%
same,"Intoxication ratio, tail-flick latency",C57BL/6Crl mice [3]; both sexes,0.036
same,"Intoxication ratio, tail-flick latency",C57BL/6Crl mice [3]; females,0.038
same,ED50 tail-flick latency,"C57BL/6Crl mice [3]; i.v., females",> 30 mg/kg
same,"OFT time in the center, CBG compared to THC",C57BL/6Crl mice [4]; 10 mg/kg i.p. or p.o.,spent significantly more time in the center
same,OFT velocity,"C57BL/6Crl mice [4]; 10 mg/kg i.p., CBG 35 min post-administration",reduced velocity compared to both i.p. vehicle and THC administration
same,OFT total distance travelled,"C57BL/6Crl mice [4]; 10 mg/kg i.p., compared to i.p. THC",total distance travelled was reduced
same,OFT entries to the center,"C57BL/6Crl mice [4]; 10 mg/kg i.p., compared to vehicle",entered the center fewer times than their vehicle-treated counterparts
same,OFT velocity,"C57BL/6Crl mice [4]; 10 mg/kg i.v., 25 min post-administration, male and female mice",reduced velocity compared to vehicle treatment
same,OFT total distance travelled,"C57BL/6Crl mice [4]; 10 mg/kg i.v., compared to i.v. vehicle",total distance travelled was reduced
same,OFT time in the center,"C57BL/6Crl mice [4]; 10 mg/kg i.v., compared to the vehicle",Time in the center was reduced
same,OFT entries to the center,"C57BL/6Crl mice [4]; 10 mg/kg i.v., compared to vehicle",entered the center fewer times than their vehicle-treated counterparts
same,OFT entries to the center,C57BL/6Crl mice [4]; 10 mg/kg p.o.,entered the center of the OFT more times than mice given CBG i.v.
same,OFT velocity,"C57BL/6Crl mice [4]; 10 mg/kg p.o., CBG 185 min post-administration",reduced velocity compared to p.o. THC
same,detection in blood after oral cannabis,[5]; cannabis administered orally,not detected
same,time CBG was detected after smoking,[5]; frequent cannabis smokers,up to 17 min
same,time CBG was detected following vaporization,[5]; frequent cannabis smokers,up to 13 min
same,CB1R affinity relative to THC,CB1R,approximately one-twentieth
